In US5827849A, “Cyclic dericatives, pharmaceutical compositions containing these compounds and processes for preparing them” (Karl Thomae GmbH, priority 1993, dated 1998) one finds IC50 and EC50 data, which are given here for 19 compounds.

SMILES strings stand for the structures. pEC50, pIC50: −log10 of the molar value. Where a name gives a salt, the structure may show the parent alone. Read-outs that look alike come from different tables or passages of the source. Where only a bound is given, the exact number is not on record here.

Broadly, the pIC50 is the negative decadic logarithm of the IC50, by convention in mol/L. For orientation: pEC50 means −log10 of the EC50, conventionally taken in molar units.

The test system of one assay is Human thrombocytes. The assay can be described thus: Inhibition of the binding of 3H-BIBU 52 to human thrombocytes (platelets). To be noted: 20 minutes. Here is the method:
1. Inhibition of the binding of ^3 H-BIBU 52 to Human thrombocytes […] Case 5/1093-FL) and various concentrations of the test substance. The free and bound ligand are separated by centrifuging and quantitatively measured by scintillation counting. From the measurements obtained the inhibition of ^3 H-BIBU 52 binding caused by the test substance is determined. In order to do this, donor blood is taken from an anticubital vein and anti-coagulated with trisodium citrate (final concentration 13 mM). The blood is centrifuged for 10 minutes at 170×g and the supernatant platelet-rich plasma (PRP) is removed. The remaining blood is centrifuged vigorously once more in order to recover plasma. The PRP is diluted with autologous plasma 1:10. 750 μl are incubated for 20 minutes at ambient temperature with 50 μl of physiological saline solution, 100 μl of test substance solution, 50 μl of ^14 C-sucrose (3700 Bq) and 50 μl of ^3 H-BIBU 52 (final concentration: 5 nM). In order to measure the non specific binding, 5 μl of BIBU 52 (final concentration 30 μM) are used instead of the test substance. […] The pellet is dissolved in 500 μl of 0.2N NaOH, 450 μl are mixed with 2 ml of scintallator and 25 μl of 5N HCl, and measured. The residual plasma remaining in the pellet is determined from the ^14 C-content, and the bound ligand is determined from the ^3 H-measurement. After substracting the non specific binding, the pellet activity is plotted against the concentration of the test substance and the concentration for 50% inhibition of binding is determined. A. Inhibition of the binding of ^3 H-BIBU 52 to human platelets […] The free and bound ligand is separated by centrifugation and determined quantitatively by scintillation counting. The inhibition of ^3 H-BIBU 52 binding by the test substance is determined from the measurements. For this purpose, donor blood is taken from an antecubital vein and anticoagulated with trisodium citrate (final concentration 13 mM). The blood is centrifuged at 170×g for 10 minutes, and the supernatant platelet-rich plasma (PRP) is removed. The remaining blood is thoroughly centrifuged once again to obtain plasma. The PRP is diluted 1:10 with autologous plasma. […] are incubated with […] of physiological saline, […] of test substance solution, […] of ^14 C-sucrose (3700 Bq) and 50 ml of ^3 H-BIBU 52 (final concentration: 5 nM) at room temperature for 20 minutes. To measure the nonspecific binding, 5 ml of BIBU 52 (final concentration: […]) are used in place of the test substance. […] The pellet is dissolved in 500 ml of 0.2N NaOH, and 450 ml are mixed with 2 ml of scintillator and 25 ml of 5N HCl and measured. The remaining plasma still present in the pellet is determined from the ^14 C content, and the bound ligand is determined from the ^3 H measurement. After subtraction of the nonspecific binding, the activity in the pellet is plotted against the concentration of test substance, and the concentration for 50% inhibition of binding is found.

Assay [1] deals with Thrombocyte aggregation (collagen-induced). The assay can be described thus: Collagen-induced platelet aggregation in platelet-rich plasma (Born and Cross method). Format: cell-based. The settings on record: Homo sapiens, 10 min, 10 minutes incubation at 37° C., read-out: Inhibition of platelet aggregation EC50. Here is the method: 2. Antithrombotic activity Thrombocyte aggregation is measured using the Born and Cross method (J. Physiol. 170: 397 (1964)) in platelet-rich plasma taken from healthy volunteers. To inhibit coagulation the blood is mixed with 3.14% sodium citrate in a ratio by volume of 1:10. Collagen-induced aggregation The pattern of the decrease in optical density of the platelet suspension is photometrically measured and recorded after the addition of the aggregation-triggering substance. The rate of aggregation is determined from the angle of inclination of the density curve. The point on the curve where there is maximum light transmittance is used to calculate the optical density. The amount of collagen used is as small as possible but sufficient to produce an irreversible reaction curve. Standard commercial collagen produced by Hormonchemie of Munich is used. Before the addition of the collagen the plasma is incubated for 10 minutes with the test substance at 37° C. From the measurements obtained, an EC50 is determined graphically, indicating a 50% change in the optical density in terms of the inhibition of aggregation. B. Antithrombotic effect Platelet aggregation is measured by the method of Born and Cross (J. Physiol. 170, 397 (1964)) in platelet-rich plasma from healthy test subjects. For anticoagulation, sodium citrate 3.14% is added to the blood in the ratio 1:10 by volume. Collagen-induced aggregation The course of the decrease in optical density of the platelet suspension is measured and recorded photometrically after addition of the aggregation-inducing substance. The rate of aggregation is established from the angle of inclination of the density plot. The point on the plot at which the transmission of light is a maximum is used to calculate the optical density. The amount of collagen is chosen to be as small as possible but sufficient for the reaction plot to have an irreversible course. The collagen commercially obtainable from Hormonchemie, Munich, is used. Before the addition of collagen the plasma is in each case incubated with the substance at 37° C. for 10 minutes. An EC50 which relates to a 50% change in the optical density in the sense of inhibition of aggregation is determined graphically from the measured results.

[2] abbreviates: human platelets in plasma, 3H-BIBU 52 5 nM replaces 125I-fibrinogen, room temperature, read-out: Fibrinogen binding assay IC50.
Setting [3] is: platelet-rich plasma from healthy test subjects, compounds of general formula XXI.
Setting [4] is: human thrombocytes in plasma, 3H-BIBU 52 5 nM, ambient temperature, read-out: 3H-BIBU 52-binding test IC50.
[5] abbreviates: platelet-rich plasma of healthy volunteers, compounds of general formula I.

Turning to `O=C(O)CC[C@H]1CC[C@H](N2CCN(c3ccc4c(n3)CCNCC4)C2=O)CC1` [32 (3), 1-[trans-4-(2-Carboxyethyl)cyclohexyl]-3-(6,7,8,9-tetrahydro-5H-pyrido[2,3-d]azepin-2-yl)imidazolidin-2-one], the pIC50 with Human thrombocytes (setting [2]) is 7.82. Further, the negative logarithm of the EC50 (pEC50) in assay [1] (setting [3]) was 7.09.

`CCN1CCc2ncc(N3CCN(c4ccc(CCC(=O)O)cc4)C3=O)nc2CC1` [36 (10), 1-[4-(2-Carboxyethyl)phenyl]-3-(7-ethyl-6,7,8,9-tetrahydro-5-pyrazino[2,3-d]azepin-2-yl)imidazolidin-2-one×1,4 HCl×2 H2 O]: the pIC50 in the assay on Human thrombocytes (setting [2]) is 7.49. In addition, the pEC50 in assay [1] (setting [3]) was 6.89.

As for `CCN1CCc2ncc(N3CCN(c4ccc(OCC(=O)O)cc4)C3=O)nc2CC1` [36 (1), 1-[4-[(Carboxymethyl)oxy]phenyl]-3-(7-ethyl-6,7,8,9-tetrahydro-5H-pyrazino[2,3-d]azepin-2-yl)imidazolidin-2-one×1.75 HCl×H2 O], the pIC50 in the assay with Human thrombocytes (setting [2]) was 7.11. In addition, in assay [1] (setting [3]), the pEC50 was 6.54.

Consider `CN1CCc2ccc(N3CCN([C@H]4CC[C@H](OCC(=O)O)CC4)C3=O)cc2CC1` [19(1), 1-[trans-4-[(carboxymethyl)oxy]cyclohexyl]-3-(3-methyl-2,3,4,5-tetrahydro-1H-3-benzazepin-7-yl)-imidazolidin-2-one-hydrochloride×NaCl×0.5H2 O], for which, in the assay with Human thrombocytes (setting [4]), the pIC50 is 6.92. Also, the pEC50 in assay [1] (setting [5]) is 6.46.

Take `O=C(O)CCc1ccc(N2CCN(c3ccc4c(c3)CCNCC4)C2=O)cc1` [Example 9, 1-[4-(2-Carboxyethyl)phenyl]-3-(2,3,4,5-tetrahydro-1H-3-benzazepin-7-yl)-imidazolidin-2-one]: the pIC50 with Human thrombocytes (setting [4]) was 7.07. In addition, the negative logarithm of the EC50 (pEC50) in assay [1] (setting [5]) was 6.72.

As to `CN1CCc2ccc(N3CC(=O)N([C@H]4CC[C@H](CCC(=O)O)CC4)C3=O)cc2CC1` [19(3), 3-[trans-4-(2-carboxyethyl)cyclohexyl]-1-(3-methyl-2,3,4,5-tetrahydro-1H-3-benzazepin-7-yl)-hydantoin-hydrochloride], the pIC50 in the assay with Human thrombocytes (setting [4]) was 7.09. Moreover, in assay [1] (setting [5]), the pEC50 was 6.37.

Regarding `O=C(O)CCc1ccc(N2CCN(c3ccc4c(c3)CCNC4)C2=O)cc1` [2(2), 1-[4-(2-carboxyethyl)phenyl]-3-(1,2,3,4-tetrahydroisoquinolin-6-yl)-imidazolidin-2-one], in the assay on Human thrombocytes (setting [4]), the pIC50 was 7.62. The pEC50 in assay [1] (setting [5]) is 7.40.

In the case of `O=C(O)CC[C@H]1CC[C@H](n2ccn(-c3cnc4c(n3)CCNCC4)c2=O)CC1` [32 (6), 1-[trans-4-(2-Carboxyethyl)cyclohexyl]-3-(6,7,8,9-tetrahydro-5H-pyrazino[2,3-d]azepin-2-yl)-3H-imidazol-2-one], the pIC50 with Human thrombocytes (setting [2]) is 7.51. Moreover, in assay [1] (setting [3]), the pEC50 was 6.64.

On to `CN1CCc2ncc(N3CCN([C@H]4CC[C@H](OCC(=O)O)CC4)C3=O)nc2CC1` [36 (2), 1-[trans-4-[(Carboxymethyl)oxy]cyclohexyl]-3-(7-methyl-6,7,8,9-tetrahydro-5H-pyrazino[2,3-d]azepin-2-yl)imidazolidin-2-one dihydrochloride], for which the pIC50 in the assay on Human thrombocytes (setting [2]) is 7.72. In assay [1] (setting [3]), the pEC50 was 6.68.

In the case of `CN1CCc2ncc(N3CC(=O)N([C@H]4CC[C@H](CCC(=O)O)CC4)C3=O)nc2CC1` [36 (12), 3-[trans-4-(2-Carboxyethyl)cyclohexyl]-1-(7-methyl-6,7,8,9-tetrahydro-5H-pyrazino[2,3-d]azepin-2-yl)-imidazolidine-2,4-dione hydrochloride], in the assay on Human thrombocytes (setting [2]), the pIC50 is 7.89. In addition, the pEC50 in assay [1] (setting [3]) was 6.35.

In the case of `COC(=O)CCc1ccc(N2CCN(c3ccc4c(c3)CCNC4)C2=O)cc1` [Example 6, 1-[4-[2-(Methoxycarbonyl)ethyl]phenyl]-3-(1,2,3,4-tetrahydro-isoquinolin-6-yl)-imidazolidin-2-one-acetate], the pIC50 in the assay on Human thrombocytes (setting [4]) was 6.96. Also, in assay [1] (setting [5]), the pEC50 was 7.40.

As to `CCN1CCc2cc(N3CCN([C@H]4CC[C@H](CCC(=O)O)CC4)C3=O)cnc2CC1` [32 (1), 1-[trans-4-(2-Carboxyethyl)cyclohexyl]-3-(7-ethyl-6,7,8,9-tetrahydro-5H-pyrido[2,3-d]azepin-3-yl)imidazolidin-2-one×1 H2 O], the pIC50 in the assay on Human thrombocytes (setting [2]) is 6.60. In assay [1] (setting [3]), the pEC50 was 6.51.

As to `Nc1nccc2cc(N3CCN(c4ccc(CCC(=O)O)cc4)C3=O)ccc12` [Example 1, 1-(1-Aminoisoquinolin-6-yl)-3-[4-(2-carboxyethyl)phenyl]-imidazolidin-2-one×1 water×1.2 acetic acid], the pIC50 in the assay on Human thrombocytes (setting [4]) is 6.72. Further, in assay [1] (setting [5]), the pEC50 was under 5.00.

For `O=C(O)CCc1ccc(-n2ccn(-c3ccc4cnccc4c3)c2=O)cc1` [2(1), 1-[4-(2-carboxyethyl)phenyl]-3-(isoquinolin-6-yl)-3H-imidazol-2-one], the negative-log IC50 (pIC50) in the assay on Human thrombocytes (setting [4]) was 5.27. In assay [1] (setting [5]), the negative-log EC50 (pEC50) is under 5.00.

For the compound `CCN1CCc2cnc(N3CCN(C4CCC(CCC(=O)O)CC4)C3=O)cc2CC1` (stereo not drawn) [32 (2), 1-[trans-4-(2-carboxyethyl)cyclohexyl]-3-(7-ethyl-6,7,8,9-tetrahydro-5H-pyrido[3,4-d]imidazolidin-2one], the pIC50 in the assay with Human thrombocytes (setting [2]) is 6.00. For the same compound, the pEC50 in assay [1] (setting [3]) was 5.64.

In the case of `O=C(O)CCc1ccc(N2CCN([C@@H]3CC[C@H]4CNCC[C@@H]4C3)C2=O)cc1` (relative stereo) [9(1)], in the assay with Human thrombocytes (setting [4]), the pIC50 was 6.12. Besides, in assay [1] (setting [5]), the pEC50 is 6.00.

Turning to `CN1CCc2ncc(N3CCN(C4CCN(CCC(=O)O)CC4)C3=O)nc2CC1` [36 (3), 1-[1-(2-Carboxyethyl)piperidin-4-yl]-3-(7-methyl-6,7,8,9-tetrahydro-5H-pyrazino[2,3-d]azepin-2-yl)imidazolidin-2-one trihydrochloride], the pIC50 in the assay on Human thrombocytes (setting [2]) was 7.74. Besides, the pEC50 in assay [1] (setting [3]) is 7.15.

Consider `CN1CCc2ncc(N3CCN([C@H]4CC[C@H](CCC(=O)O)CC4)C3=O)nc2CC1` [Example 32, 1-[trans-4-(2-Carboxyethyl)cyclohexyl]-3-(7-methyl-6,7,8,9-tetrahydro-5H-pyrazino[2,3-d]azepin-2-yl)imidazolidin-2-one×1 H2 O], for which, in the assay on Human thrombocytes (setting [2]), the pIC50 was 7.96. The pEC50 in assay [1] (setting [3]) is 7.00.

As to `CN1CCc2ccc(N3CCN([C@H]4CC[C@H](CCC(=O)O)CC4)C3=O)nc2CC1` [35 (1), 1-[trans-4-(2-Carboxyethyl)cyclohexyl]-3-(7-methyl-6,7,8,9-tetrahydro-5H-pyrido[2,3-d]azepin-2-yl)imidazolidin-2-one dihydrochloride×2H2 O], the pIC50 in the assay with Human thrombocytes (setting [2]) is 7.77. Also, the pEC50 in assay [1] (setting [3]) was 6.96.
